The nature of the data set: Solubility in water and aqueous medium. The data set is classed as physicochemical.

Consider moexitecan, for which the “Solubility in water and an aqueous medium” value was “insoluble or almost insoluble”.

These data come from patent publication US20200338519A1, “METHOD FOR PREPARING LIPOSOME” (priority 2015, published 2020).
